Experimental data taken from publication PMC7527212 (Science Advances, 2020).

Legend:
F143W mutant of Bcl-xL = assay: ITC measurement of Bak BH3 peptide binding, F143W mutant; set-up: species or system human; conditions: ratio of KA by ITC, F143W vs WT Bcl-xL
WT Bcl-xL = assay: NMR titration / chemical shift perturbation; format: binding, human

Row | Substance | affinity increase, F143W mutant versus WT Bcl-xL (F143W mutant of Bcl-xL) | CSP in the cryptic site (WT Bcl-xL; NMR, 160 μM peptide added to 100 μM WT Bcl-xL, 10 mM NaPi pH 6.8, 2 mM DTT, 298 K) | binding to WT Bcl-xL (binding mode) (WT Bcl-xL; concluded from NMR CSPs, 160 μM peptide, 100 μM WT Bcl-xL)
1 | NH3-GQVGRQLAIIGDDINR-COOH [Bak BH3 peptide] | twofold |  | 
2 | NH3-YPLGSPLWRLHS-COOH [P1] |  | clear CSP in the cryptic site | binds to the WT Bcl-xL with the expected binding mode
